Laboratory results: patent US12433876B2, “Septin inhibitors for treatment of cancers” (UNIVERSITY OF ROCHESTER, priority 2019, dated 2025)

Columns and labels:
[1] = system: pSTAT-3; test: Immunoblot of phosphorylated STAT-3; assay type: cell-based
[2] = system: HE4 mRNA; test: HE4 expression by real time PCR; assay type: cell-based; conditions: ECC-1, 300 μM, 5 hours, normalized to B2M
Protocol: Cell lines, Culture, and Reagents. Cells were maintained in either DMEM (SKOV-3, KLE, OVCAR-3, OVCAR8-C5 and IGROV-1) or RPMI-1640 (ECC-1 and HCH-1), supplemented with 10% fetal calf serum (or 20% for OVCAR-3), penicillin (100 units/mL), and streptomycin (100 μg/mL) at 37° C. with 5% CO2 in a humidified incubator. Antibodies were purchased from Abcam (septin-2; ab179436) and Cell Signaling Technology; ERK (9102), p-ERK (4370), -actin (3700), u-Tubulin (2144), EGFR (4267) and HER2 (4290). FCF was purchased from Abcam. All other chemicals were from Sigma Aldrich. Synthesis of Derivaties. […] The reaction was monitored using thin-layer chromatography plates with DCM-MeOH or pure ethyl acetate as eluent. Spots were monitored in a UV chamber. […] Quantitative Real-Time PCR. […] Quantitative real-time PCR was conducted using QuantStudio 12 K Flex Real-Time PCR System (ABI) and the Taqman Gene Expression Assay (ABI) consisting of the FAM-labeled probes as follows: SEPT2 (Hs01565417_ml); WFDC2 (Hs00899484_ml); TBP (Hs00427620_ml) or B2M (Hs00187842_ml), which was used as reference for normalization. […] Cell viability, proliferation, and cellular apoptosis were measured using the MTS (Promega), BrdU cell proliferation (Cell Signaling Technology), and Caspase-Glo 3/7 apoptosis detection (Promega) assays, following the respective manufacturer's recommendations with suitable modification. […]

| SMILES | phosphorylation of STAT-3 ([1]; MDA-MB-231, JIMT-1 and MCF-7 cells, 10 and 30 μM, 24 hours) | phosphorylated STAT-3 ([1]; PANC-1) | HE4 mRNA [2] |
| --- | --- | --- | --- |
| O=C(Nc1cc(Cl)nc(Cl)c1)Nc1cccc(SC(F)(F)F)c1F [UR214-9] | reduced phosphorylation of STAT-3 | reduced phosphorylated STAT-3 | – |
| O=C(Nc1ccccc1)Nc1ccnc(Cl)c1 [FCF, N-(2-chloro-4-pyridyl)-N′-phenylurea, reference compound] | – | – | suppress HE4 mRNA to some extent |
